Paper PMC8518114, “Safety, tolerability and pharmacokinetics of emodepside, a potential novel treatment for onchocerciasis (river blindness), in healthy male subjects” (British Journal of Clinical Pharmacology, 2021)
Where two headings read alike, the source gives them in different places.

Assays:
[1] = Plasma pharmacokinetics of emodepside, multiple ascending dose (MAD) study; assay type: in vivo, human; conditions: for AUC 0–24 /D / C max /D / AUC last /D / t ½ 0–24 (dominant half-life) / AUC 0–24 / Cmax: mean (CV%); for t ½ 0–24 (dominant half-life): Day 10, terminal slope of log concentration–time (0–24 hr) curve; for Cmax/Ctrough ratio: after the last dose on Day 10; for MRT: Day 1, mean (CV%); for AUC 0–24 / Cmax: HPLC-MS/MS; for CL/F: read-out: CL ss /F (converted); for Vd/F: read-out: V z /F; for half-life: read-out: Terminal t ½ (converted)
Description: Emodepside and placebo were supplied as a LSF and a standard immediate‐release (IR) tablet. The LSF was a 0.1% (w/v) solution containing 1 mg emodepside/mL. Conventional IR tablets containing emodepside in crystalline form were supplied in 2 dosage strengths, 5 and 20 mg, for the single ascending dose (SAD) study.
Blood samples (5 mL) were collected by venepuncture or via a cannula into EDTA tubes and immediately placed on ice. Samples were centrifuged at 1500 g for 10 minutes at 4°C. The plasma was aliquoted into 2 polypropylene tubes, which were stored at −20°C. Blood samples for PK analysis were taken at the following time points: • SAD: predose and 0.5, 1, 1.5, 2, 2.5, 3, 4, 5, 6, 8, 12, 24, 36, 48, 72, 96, 120, 144 and 168 hours, and 21 days postdose (cohort 1–9) or predose and 0.5, 1, 3, 6, 8, 12, 24, 36, 48, 72, 96, 120, 144 and 168 hours, and 10, 14, 18 and 21 days postdose (cohort 10). • Multiple ascending dose (MAD), as below: • on Day 1: predose and at 0.25, 0.5, 1, 1.5, 2, 2.5, 3, 4, 6, 8, 12 and 15 hours postdose • on Days 2–9: before the morning dose • on Day 10: before and at 0.25, 0.5, 1, 1.5, 2, 2.5, 3, 4, 6, 8, 12 and 15 hours • on Days 11, 12, 13, 14, 15, 18, 21, 24 and 30.
Emodepside plasma concentrations were determined by a validated high performance liquid chromatography–tandem mass spectrometry assay, using a Alltima C18 5 μm 150 mm x 2.1 mm column and an Applied Biosystems API4000 Turbo Ion Spray detector using positive ion mode. Analyst version 1.3.2 or 1.6.3 software, obtained from AB Sciex UK Ltd, Warrington, UK was used for chromatogram data analysis and quantitative calculations. Deuterated emodepside‐D16 was used as the internal standard. The lower limit of quantitation for emodepside in plasma was 1 ng/mL. Values below this limit were not used to calculate the PK parameters, except values that were below the limit of quantification before Cmax, which were set to zero.
The highest observed plasma concentration (Cmax) was determined directly from concentration–time data, as was the time to reach maximum plasma concentration (tmax). The area under the plasma concentration–time curve from time zero (predose) to the time of last quantifiable concentration (AUC0‐last) was calculated using the linear‐log trapezoidal rule. Elimination half‐life (t1/2) was calculated by the equation ln2/λz.
Statistical analyses were performed using SAS version 9.3 (Cary, NC, USA). Demographic data and baseline characteristics were listed and summarised. […] PK parameters were derived from plasma concentration vs. time data using a noncompartmental analysis in Phoenix WinNonlin version 7 (Certara Inc., Princeton, NJ, USA). Plasma concentration vs. time data and PK parameters were listed, and summarised by treatment, using descriptive statistics. Mean concentrations were calculated only if at least ⅔ of the individual concentrations were above the lower limit of quantification. […] Planned sampling times were used to summarise plasma‐concentration data; actual sampling times were used in the derivation of PK parameters.

[2] = rat, in vivo; cited from earlier work
Excerpt: This is in line with nonclinical PK studies in rats and dogs, in which emodepside volume ...

[3] = 5 mg OD LSF fasting, Day 1, dose-normalised
[4] = 5 mg OD LSF fasting, Day 10, dose-normalised
[5] = 10 mg BID LSF fasting, Day 1, dose-normalised
[6] = 10 mg BID LSF fasting, Day 10, dose-normalised
[7] = 10 mg OD LSF fasting, Day 1, dose-normalised
[8] = 10 mg OD LSF fasting, Day 10, dose-normalised
[9] = human, plasma, po, 5 mg, 5 mg OD LSF fasting, Day 1, plasma
[10] = human, plasma, po, 5 mg, 5 mg OD LSF fasting, Day 10, mean (CV%)
[11] = human, plasma, po, 5 mg, 5 mg OD LSF fasting, Day 10, plasma
[12] = human, plasma, po, 10 mg, 10 mg BID LSF fasting, Day 1, plasma
[13] = human, plasma, po, 10 mg, 10 mg BID LSF fasting, Day 10, mean (CV%)
[14] = human, plasma, po, 10 mg, 10 mg BID LSF fasting, Day 10, plasma
[15] = human, plasma, po, 10 mg, 10 mg OD LSF fasting, Day 1, plasma
[16] = human, plasma, po, 10 mg, 10 mg OD LSF fasting, Day 10, mean (CV%)
[17] = human, plasma, po, 10 mg, 10 mg OD LSF fasting, Day 10, plasma

CC(C)C[C@H]1C(=O)O[C@H](Cc2ccc(N3CCOCC3)cc2)C(=O)N(C)[C@@H](CC(C)C)C(=O)O[C@H](C)C(=O)N(C)[C@@H](CC(C)C)C(=O)O[C@H](Cc2ccc(N3CCOCC3)cc2)C(=O)N(C)[C@@H](CC(C)C)C(=O)O[C@H](C)C(=O)N1C [emodepside]
AUC 0–24 /D [1, 3]: 115 (19.7) [h.ng/mL]/mg
C max /D [1, 3]: 18.8 (17.8) [ng/mL]/mg
Tmax ([1]; 5 mg OD LSF fasting, Day 1, median (range)): 1.00 (1.00–1.07) h
AUC 0–24 /D [1, 4]: 338 (31.3) [h.ng/mL]/mg
AUC last /D [1, 4]: 3872 (29.9) [h.ng/mL]/mg
C max /D [1, 4]: 29.9 (17.9) [ng/mL]/mg
λ z ([1]; 5 mg OD LSF fasting, Day 10, mean (CV%)): 0.00166 (42.6) 1/h
Terminal t ½ ([1]; 5 mg OD LSF fasting, Day 10, mean (CV%), geometric mean): 419 (42.6) h
Tmax ([1]; 5 mg OD LSF fasting, Day 10, median (range)): 1.00 (1.00–1.50) h
t ½ 0–24 (dominant half-life) ([1]; 5 mg OD LSF fasting): 26.9 (52.4) h
AUC 0–24 /D [1, 5]: 71.4 (26.5) [h.ng/mL]/mg
C max /D [1, 5]: 16.0 (20.4) [ng/mL]/mg
Tmax ([1]; 10 mg BID LSF fasting, Day 1, median (range)): 1.00 (1.00–1.58) h
AUC 0–24 /D [1, 6]: 490 (35.8) [h.ng/mL]/mg
AUC last /D [1, 6]: 5955 (29.1) [h.ng/mL]/mg
C max /D [1, 6]: 34.9 (27.1) [ng/mL]/mg
λ z ([1]; 10 mg BID LSF fasting, Day 10, mean (CV%)): 0.00137 (56.9) 1/h
t ½ 0–24 (dominant half-life) ([1]; 10 mg BID LSF fasting): 33.2 (55.0) h
Cmax/Ctrough ratio ([1]; 10 mg BID LSF): 1.9
AUC 0–24 /D [1, 7]: 113 (32.7) [h.ng/mL]/mg
C max /D [1, 7]: 18.6 (21.3) [ng/mL]/mg
AUC 0–24 /D [1, 8]: 349 (44.2) [h.ng/mL]/mg
AUC last /D [1, 8]: 4065 (43.5) [h.ng/mL]/mg
C max /D [1, 8]: 28.7 (39.7) [ng/mL]/mg
λ z ([1]; 10 mg OD LSF fasting, Day 10, mean (CV%)): 0.00154 (30.6) 1/h
Tmax ([1]; 10 mg OD LSF fasting, Day 10, median (range)): 1.25 (1.00–2.00) h
t ½ 0–24 (dominant half-life) ([1]; 10 mg OD LSF fasting): 18.4 (30.0) h
Cmax/Ctrough ratio ([1]; 10 mg OD LSF): 3.0
Emodepside levels at the final sampling timepoint ([1]; 507 hours after the last morning dose, LLOQ 1 ng/mL): still quantifiable in all subjects
Geometric mean Cmax on Day 10, 10 mg BID group vs 10 mg OD group ([1]; LSF): 1.2 fold
MRT ([1]; human, plasma, po, 5 mg, 5 mg OD LSF fasting): 7.28 h
AUC 0–24 [1, 9]: 574 ng·h/mL
Cmax [1, 9]: 93.8 ng/mL
CL/F [1, 10]: 49.3 mL/min
Vd/F [1, 10]: 1790 L
AUC 0–24 [1, 11]: 1690 ng·h/mL
Cmax [1, 11]: 149 ng/mL
MRT ([1]; human, plasma, po, 10 mg, 10 mg BID LSF fasting): 10.8 h
AUC 0–24 [1, 12]: 1430 ng·h/mL
Cmax [1, 12]: 160 ng/mL
half-life ([1]; human, plasma, po, 10 mg, 10 mg BID LSF fasting, Day 10, mean (CV%), geometric mean): 508 h
CL/F [1, 13]: 59.3 mL/min
Vd/F [1, 13]: 2610 L
Tmax ([1]; human, plasma, po, 10 mg, 10 mg BID LSF fasting, Day 10, median (range), read-out: t max): 1.5 h
AUC 0–24 [1, 14]: 4900 ng·h/mL
Cmax [1, 14]: 349 ng/mL
MRT ([1]; human, plasma, po, 10 mg, 10 mg OD LSF fasting): 7 h
Tmax ([1]; human, plasma, po, 10 mg, 10 mg OD LSF fasting, Day 1, median (range), read-out: t max): 1.25 h
AUC 0–24 [1, 15]: 1140 ng·h/mL
Cmax [1, 15]: 186 ng/mL
half-life ([1]; human, plasma, po, 10 mg, 10 mg OD LSF fasting, Day 10, mean (CV%), geometric mean): 450 h
CL/F [1, 16]: 47.8 mL/min
Vd/F [1, 16]: 1860 L
AUC 0–24 [1, 17]: 3490 ng·h/mL
Cmax [1, 17]: 287 ng/mL
Radioactivity levels in tissues vs blood, radio-labelled emodepside [2]: higher in most tissues than in the blood
